Measurements taken from ChEMBL document CHEMBL3991601, “The target landscape of clinical kinase drugs” (Science, 2017).
Active and inactive are the calls of the source.

How the values were obtained:
[1] = target: T1, Peroxisomal acyl-coenzyme A oxidase 1 (Homo sapiens, UniProt Q15067)
T1 sequence (Q15067 whole entry): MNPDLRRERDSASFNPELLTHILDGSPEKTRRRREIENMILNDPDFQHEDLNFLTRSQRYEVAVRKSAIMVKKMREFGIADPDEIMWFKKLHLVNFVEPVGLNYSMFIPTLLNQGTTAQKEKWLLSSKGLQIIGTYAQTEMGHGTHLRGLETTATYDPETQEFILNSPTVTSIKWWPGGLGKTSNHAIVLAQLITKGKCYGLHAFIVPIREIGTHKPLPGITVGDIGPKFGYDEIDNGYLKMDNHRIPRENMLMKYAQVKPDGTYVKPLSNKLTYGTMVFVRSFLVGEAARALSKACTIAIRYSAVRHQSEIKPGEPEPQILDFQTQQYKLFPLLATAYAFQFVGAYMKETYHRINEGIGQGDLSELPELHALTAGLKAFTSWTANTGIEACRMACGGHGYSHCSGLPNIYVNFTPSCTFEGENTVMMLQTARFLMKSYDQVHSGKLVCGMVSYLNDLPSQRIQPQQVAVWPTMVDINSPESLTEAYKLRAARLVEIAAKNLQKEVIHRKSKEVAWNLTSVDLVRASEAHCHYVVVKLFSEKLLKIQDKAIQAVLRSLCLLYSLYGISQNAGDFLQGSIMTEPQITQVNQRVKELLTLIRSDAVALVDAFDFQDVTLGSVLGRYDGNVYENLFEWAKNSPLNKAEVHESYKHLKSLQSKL

[2] = target: Calcium/calmodulin-dependent protein kinase type II subunit delta (Homo sapiens, UniProt Q13557)
[3] = target: Tyrosine-protein kinase CSK (Homo sapiens, UniProt P41240)
[4] = target: GTP-binding protein 4 (Homo sapiens, UniProt Q9BZE4)
[5] = target: T2, Phosphorylase b kinase gamma catalytic chain, liver/testis isoform (Homo sapiens, UniProt P15735)
T2 sequence (P15735 whole entry): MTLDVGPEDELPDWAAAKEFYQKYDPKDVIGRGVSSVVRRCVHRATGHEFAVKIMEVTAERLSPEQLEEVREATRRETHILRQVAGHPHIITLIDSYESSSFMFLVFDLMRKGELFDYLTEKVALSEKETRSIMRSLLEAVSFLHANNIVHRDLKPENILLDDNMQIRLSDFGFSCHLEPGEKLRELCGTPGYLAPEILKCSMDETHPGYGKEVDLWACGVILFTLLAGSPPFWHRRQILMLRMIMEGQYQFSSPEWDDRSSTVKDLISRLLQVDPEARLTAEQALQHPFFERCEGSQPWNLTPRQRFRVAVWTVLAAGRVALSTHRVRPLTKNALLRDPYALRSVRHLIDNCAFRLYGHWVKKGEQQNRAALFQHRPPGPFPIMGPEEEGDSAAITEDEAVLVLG

[6] = target: T3, Ras-related protein Rab-10 (Homo sapiens, UniProt P61026)
T3 sequence (P61026 whole entry): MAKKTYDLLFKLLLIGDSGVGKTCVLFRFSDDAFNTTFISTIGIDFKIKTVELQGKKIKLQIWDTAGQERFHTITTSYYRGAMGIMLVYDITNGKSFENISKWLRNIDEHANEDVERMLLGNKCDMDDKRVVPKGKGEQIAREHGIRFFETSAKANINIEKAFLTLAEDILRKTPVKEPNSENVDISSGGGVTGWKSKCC

[7] = target: T4, Exosome RNA helicase MTR4 (Homo sapiens, UniProt P42285)
T4 sequence (P42285 whole entry): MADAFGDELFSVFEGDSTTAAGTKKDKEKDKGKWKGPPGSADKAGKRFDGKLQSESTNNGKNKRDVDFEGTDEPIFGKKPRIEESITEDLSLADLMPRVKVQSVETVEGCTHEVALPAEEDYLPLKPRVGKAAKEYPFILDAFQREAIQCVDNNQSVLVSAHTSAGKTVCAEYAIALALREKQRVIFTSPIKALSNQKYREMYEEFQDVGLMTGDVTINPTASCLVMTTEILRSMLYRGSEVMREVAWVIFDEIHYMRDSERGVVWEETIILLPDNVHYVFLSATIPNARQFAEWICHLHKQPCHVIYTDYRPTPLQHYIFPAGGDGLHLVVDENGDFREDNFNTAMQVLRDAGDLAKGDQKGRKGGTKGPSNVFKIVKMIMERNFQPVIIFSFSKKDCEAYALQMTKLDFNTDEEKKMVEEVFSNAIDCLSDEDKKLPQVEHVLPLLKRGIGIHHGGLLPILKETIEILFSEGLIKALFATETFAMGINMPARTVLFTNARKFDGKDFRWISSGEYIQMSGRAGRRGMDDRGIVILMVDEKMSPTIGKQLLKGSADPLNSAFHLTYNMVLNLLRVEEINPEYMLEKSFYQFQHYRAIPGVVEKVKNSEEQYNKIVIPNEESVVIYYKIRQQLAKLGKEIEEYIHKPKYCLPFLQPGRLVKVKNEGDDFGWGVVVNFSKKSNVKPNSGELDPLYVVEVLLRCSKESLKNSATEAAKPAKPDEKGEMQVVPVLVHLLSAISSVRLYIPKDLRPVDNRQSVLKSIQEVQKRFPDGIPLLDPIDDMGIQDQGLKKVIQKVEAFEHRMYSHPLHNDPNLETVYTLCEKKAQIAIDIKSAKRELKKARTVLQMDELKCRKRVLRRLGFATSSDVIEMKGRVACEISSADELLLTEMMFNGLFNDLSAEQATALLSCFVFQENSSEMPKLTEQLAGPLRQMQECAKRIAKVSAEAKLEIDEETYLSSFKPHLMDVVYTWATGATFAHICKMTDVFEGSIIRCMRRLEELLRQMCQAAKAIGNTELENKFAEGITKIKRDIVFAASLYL

[8] = target: Activated CDC42 kinase 1 (Homo sapiens, UniProt Q07912)
[9] = target: Elongation factor Tu, mitochondrial (Homo sapiens, UniProt P49411)
[10] = target: Mitogen-activated protein kinase kinase kinase 20 (Homo sapiens, UniProt Q9NYL2)
Also: in the data inactive means no Kd found up to 30 µM.

Sequence of Activated CDC42 kinase 1 (Q07912 whole entry): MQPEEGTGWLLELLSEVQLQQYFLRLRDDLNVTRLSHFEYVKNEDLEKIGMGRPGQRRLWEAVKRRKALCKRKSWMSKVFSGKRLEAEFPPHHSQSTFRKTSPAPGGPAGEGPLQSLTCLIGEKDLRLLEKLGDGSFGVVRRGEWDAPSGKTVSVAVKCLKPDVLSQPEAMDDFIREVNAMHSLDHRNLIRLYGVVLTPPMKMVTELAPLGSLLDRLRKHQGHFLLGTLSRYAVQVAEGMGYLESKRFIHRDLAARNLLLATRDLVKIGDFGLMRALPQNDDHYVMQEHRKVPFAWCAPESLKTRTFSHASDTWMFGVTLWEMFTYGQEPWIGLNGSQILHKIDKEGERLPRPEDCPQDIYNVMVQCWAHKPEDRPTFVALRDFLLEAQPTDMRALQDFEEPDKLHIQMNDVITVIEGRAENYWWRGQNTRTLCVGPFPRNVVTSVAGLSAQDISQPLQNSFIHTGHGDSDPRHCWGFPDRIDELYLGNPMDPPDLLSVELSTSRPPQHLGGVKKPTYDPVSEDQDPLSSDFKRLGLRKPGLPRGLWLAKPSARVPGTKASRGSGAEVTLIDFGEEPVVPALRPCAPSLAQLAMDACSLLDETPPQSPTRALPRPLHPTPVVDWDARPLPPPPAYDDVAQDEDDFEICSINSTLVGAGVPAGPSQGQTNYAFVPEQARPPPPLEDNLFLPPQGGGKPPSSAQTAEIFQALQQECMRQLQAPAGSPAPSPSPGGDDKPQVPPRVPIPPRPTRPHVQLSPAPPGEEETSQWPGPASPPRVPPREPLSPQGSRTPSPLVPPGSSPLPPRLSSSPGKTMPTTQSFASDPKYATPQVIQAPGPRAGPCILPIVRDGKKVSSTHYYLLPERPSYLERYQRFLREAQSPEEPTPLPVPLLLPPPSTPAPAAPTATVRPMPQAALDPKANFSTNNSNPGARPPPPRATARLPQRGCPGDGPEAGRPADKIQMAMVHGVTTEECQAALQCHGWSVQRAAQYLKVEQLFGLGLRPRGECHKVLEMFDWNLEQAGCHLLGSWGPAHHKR
Sequence of Calcium/calmodulin-dependent protein kinase type II subunit delta (Q13557 whole entry): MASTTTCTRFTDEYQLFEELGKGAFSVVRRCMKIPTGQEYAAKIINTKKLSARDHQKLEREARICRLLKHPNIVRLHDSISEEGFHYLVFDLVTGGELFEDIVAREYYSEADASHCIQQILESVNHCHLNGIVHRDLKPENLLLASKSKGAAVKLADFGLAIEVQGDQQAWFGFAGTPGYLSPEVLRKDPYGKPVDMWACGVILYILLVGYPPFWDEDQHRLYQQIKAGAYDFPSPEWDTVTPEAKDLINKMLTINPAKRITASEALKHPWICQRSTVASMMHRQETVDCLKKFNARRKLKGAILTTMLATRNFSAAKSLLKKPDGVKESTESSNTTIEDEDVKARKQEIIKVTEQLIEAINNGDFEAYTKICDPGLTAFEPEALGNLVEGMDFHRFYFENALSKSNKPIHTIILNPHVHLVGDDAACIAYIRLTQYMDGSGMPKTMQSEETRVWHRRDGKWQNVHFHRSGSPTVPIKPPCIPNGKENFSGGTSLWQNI
Sequence of Mitogen-activated protein kinase kinase kinase 20 (Q9NYL2 whole entry): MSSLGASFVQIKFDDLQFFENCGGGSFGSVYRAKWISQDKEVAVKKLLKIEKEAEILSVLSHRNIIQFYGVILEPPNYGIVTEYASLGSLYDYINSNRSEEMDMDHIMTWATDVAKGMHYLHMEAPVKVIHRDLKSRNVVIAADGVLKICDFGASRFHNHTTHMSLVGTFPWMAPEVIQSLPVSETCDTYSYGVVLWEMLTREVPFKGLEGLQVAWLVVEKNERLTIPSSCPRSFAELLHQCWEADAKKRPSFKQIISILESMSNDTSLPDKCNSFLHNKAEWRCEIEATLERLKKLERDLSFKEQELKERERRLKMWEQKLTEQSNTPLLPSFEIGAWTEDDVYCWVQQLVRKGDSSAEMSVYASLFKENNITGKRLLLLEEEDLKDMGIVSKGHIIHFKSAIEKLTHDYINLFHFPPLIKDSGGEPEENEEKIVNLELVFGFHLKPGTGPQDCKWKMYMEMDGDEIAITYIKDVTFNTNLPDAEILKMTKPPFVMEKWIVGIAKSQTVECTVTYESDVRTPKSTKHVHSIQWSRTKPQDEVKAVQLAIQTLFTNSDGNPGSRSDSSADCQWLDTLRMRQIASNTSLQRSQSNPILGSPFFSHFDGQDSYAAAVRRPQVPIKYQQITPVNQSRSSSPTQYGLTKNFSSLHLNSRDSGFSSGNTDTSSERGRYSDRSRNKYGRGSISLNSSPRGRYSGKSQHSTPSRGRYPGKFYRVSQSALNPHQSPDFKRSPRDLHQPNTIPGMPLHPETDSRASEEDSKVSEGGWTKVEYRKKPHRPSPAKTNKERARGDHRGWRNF
Sequence of Tyrosine-protein kinase CSK (P41240 whole entry): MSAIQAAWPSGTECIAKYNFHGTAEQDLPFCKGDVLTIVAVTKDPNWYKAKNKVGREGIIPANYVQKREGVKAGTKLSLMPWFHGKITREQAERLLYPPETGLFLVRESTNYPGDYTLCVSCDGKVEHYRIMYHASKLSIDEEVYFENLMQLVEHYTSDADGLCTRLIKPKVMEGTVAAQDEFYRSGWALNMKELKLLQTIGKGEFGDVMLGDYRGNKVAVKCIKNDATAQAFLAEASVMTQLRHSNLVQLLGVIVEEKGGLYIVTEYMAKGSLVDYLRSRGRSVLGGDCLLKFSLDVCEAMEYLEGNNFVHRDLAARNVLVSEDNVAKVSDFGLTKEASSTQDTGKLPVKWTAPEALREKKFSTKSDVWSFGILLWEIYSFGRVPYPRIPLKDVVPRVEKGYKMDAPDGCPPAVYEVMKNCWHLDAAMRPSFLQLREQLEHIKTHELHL

SMILES	Kd [1]	Kd [2]	Kd [3]	Kd [4]	Kd [5]	Kd [6]	Kd [7]	Kd [8]	Kd [9]	Kd [10]
CC[C@@H]1C(=O)N(C)c2cnc(Nc3ccc(C(=O)N[C@H]4CC[C@H](N5CCN(CC6CC6)CC5)CC4)cc3OC)nc2N1C(C)C [VOLASERTIB]	> 30 µM (inactive)	> 30 µM (inactive)	> 30 µM (inactive)	> 30 µM (inactive)	> 30 µM (inactive)	> 30 µM (inactive)	> 30 µM (inactive)	> 30 µM (inactive)	> 30 µM (inactive)	> 30 µM (inactive)
CN1CC[C@@H](c2c(O)cc(O)c3c(=O)cc(-c4ccccc4Cl)oc23)[C@@H]1CO	> 30 µM (inactive)	> 30 µM (inactive)	> 30 µM (inactive)	> 30 µM (inactive)	> 30 µM (inactive)	> 30 µM (inactive)	> 30 µM (inactive)	> 30 µM (inactive)	> 30 µM (inactive)	> 30 µM (inactive)
Cc1ccc(S(=O)(=O)Nc2nc3ccccc3nc2Nc2ccc3nsnc3c2)cc1	> 30 µM (inactive)	> 30 µM (inactive)	> 30 µM (inactive)	> 30 µM (inactive)	> 30 µM (inactive)	> 30 µM (inactive)	> 30 µM (inactive)	> 30 µM (inactive)	> 30 µM (inactive)	> 30 µM (inactive)
COc1cc2nccc(Oc3ccc(NC(=O)NC4CC4)c(Cl)c3)c2cc1C(N)=O [LENVATINIB]	> 30 µM (inactive)	> 30 µM (inactive)	> 30 µM (inactive)	> 30 µM (inactive)	> 30 µM (inactive)	> 30 µM (inactive)	> 30 µM (inactive)	> 30 µM (inactive)	> 30 µM (inactive)	> 30 µM (inactive)
CCS(=O)(=O)N1CC(CC#N)(n2cc(-c3ncnc4[nH]ccc34)cn2)C1 [BARICITINIB]	> 30 µM (inactive)	0.312 µM (active)	> 30 µM (inactive)	> 30 µM (inactive)	> 30 µM (inactive)	> 30 µM (inactive)	> 30 µM (inactive)	> 30 µM (inactive)	> 30 µM (inactive)	> 30 µM (inactive)
CO[C@H]1C[C@@H]2CC[C@@H](C)[C@@](O)(O2)C(=O)C(=O)N2CCCC[C@H]2C(=O)O[C@H]([C@H](C)C[C@@H]2CC[C@@H](OCCO)[C@H](OC)C2)CC(=O)[C@H](C)/C=C(\C)[C@@H](O)[C@@H](OC)C(=O)[C@H](C)C[C@H](C)/C=C/C=C/C=C/1C [EVEROLIMUS]	> 30 µM (inactive)	> 30 µM (inactive)	> 30 µM (inactive)	> 30 µM (inactive)	> 30 µM (inactive)	> 30 µM (inactive)	> 30 µM (inactive)	> 30 µM (inactive)	> 30 µM (inactive)	> 30 µM (inactive)
CCN1CCN(Cc2ccc(-c3cc4c(N[C@H](C)c5ccccc5)ncnc4[nH]3)cc2)CC1 [AEE-788]	> 30 µM (inactive)	> 30 µM (inactive)	> 30 µM (inactive)	> 30 µM (inactive)	> 30 µM (inactive)	> 30 µM (inactive)	> 30 µM (inactive)	1.01 µM (active)	> 30 µM (inactive)	13.6 µM (active)
CC(=O)Nc1cccc(-n2c(=O)n(C3CC3)c(=O)c3c(Nc4ccc(I)cc4F)n(C)c(=O)c(C)c32)c1 [TRAMETINIB]	> 30 µM (inactive)	> 30 µM (inactive)	> 30 µM (inactive)	> 30 µM (inactive)	> 30 µM (inactive)	> 30 µM (inactive)	> 30 µM (inactive)	> 30 µM (inactive)	> 30 µM (inactive)	> 30 µM (inactive)
N[C@@H]1CCCN(c2c(/C=C3\SC(=O)NC3=O)cccc2-c2ccccc2)C1	> 30 µM (inactive)	> 30 µM (inactive)	> 30 µM (inactive)	> 30 µM (inactive)	> 30 µM (inactive)	> 30 µM (inactive)	> 30 µM (inactive)	> 30 µM (inactive)	> 30 µM (inactive)	> 30 µM (inactive)
Cc1ccc(NC(=O)c2ccc(CN3CC[C@H](N(C)C)C3)c(C(F)(F)F)c2)cc1Nc1nccc(-c2cncnc2)n1 [BAFETINIB]	> 30 µM (inactive)	> 30 µM (inactive)	2.15 µM (active)	> 30 µM (inactive)	> 30 µM (inactive)	> 30 µM (inactive)	> 30 µM (inactive)	> 30 µM (inactive)	> 30 µM (inactive)	0.065 µM (active)
O=C(Nc1ccc(-c2ccnc(Nc3ccc(N4CCOCC4)cc3)n2)cc1)C1CCCN1 (stereo not given) [XL-019]	> 30 µM (inactive)	> 30 µM (inactive)	> 30 µM (inactive)	> 30 µM (inactive)	> 30 µM (inactive)	> 30 µM (inactive)	> 30 µM (inactive)	> 30 µM (inactive)	> 30 µM (inactive)	> 30 µM (inactive)
O=C(c1ccc(F)c(F)c1Nc1ccc(I)cc1F)N1CC(O)([C@@H]2CCCCN2)C1 [COBIMETINIB]	> 30 µM (inactive)	> 30 µM (inactive)	> 30 µM (inactive)	> 30 µM (inactive)	> 30 µM (inactive)	> 30 µM (inactive)	> 30 µM (inactive)	> 30 µM (inactive)	> 30 µM (inactive)	> 30 µM (inactive)
C[C@@H]1CN(Cc2ccc(F)cc2)[C@@H](C)CN1C(=O)c1cc2c(C(=O)C(=O)N(C)C)cn(C)c2cc1Cl [TALMAPIMOD]	> 30 µM (inactive)	> 30 µM (inactive)	> 30 µM (inactive)	> 30 µM (inactive)	> 30 µM (inactive)	> 30 µM (inactive)	> 30 µM (inactive)	> 30 µM (inactive)	> 30 µM (inactive)	> 30 µM (inactive)
Cc1cc(-c2cc(O)ccc2Cl)cc2nnc(Nc3ccc(OCCN4CCCC4)cc3)nc12	> 30 µM (inactive)	> 30 µM (inactive)	> 30 µM (inactive)	> 30 µM (inactive)	> 30 µM (inactive)	> 30 µM (inactive)	> 30 µM (inactive)	> 30 µM (inactive)	> 30 µM (inactive)	> 30 µM (inactive)
